Measured values as given in patent publication US8030286B2, “Methods and means for increasing resistance to cell damage” (University of Medicine and Dentistry of New Jersey, priority 2004, dated 2011).

Experiments:
eEF2 kinase−/− MEFs = test: MTT viability assay, eEF2 kinase knockout MEFs; type: cell-based, mouse
Procedure: (§1) MTT Survival Assay: MEFs used in this study (2×10^3 cells per well of a 96 well plate) are incubated in the presence of indicated drugs for 24 hours. Cell viability is determined using the standard MTT assay^30. Each experiment is repeated three times for each drug and each cell line using three parallel wells for each drug concentration. For colony formation assay cells are treated with indicated drugs for 24 hours and replated with complete DMEM at low density (500 cells per well in 6-well plate) in duplicate. After 10 days colonies are stained with 10 mg/ml methylene blue (Sigma Inc.) in 50% methanol.
(§2) The possible correlation between activation of eEF2 kinase and the resultant phosphorylation of eEF2 and Ca^2+ ionophore-induced cell death is addressed by comparing the viability of wild type and eEF2 kinase knockout mouse embryonic fibroblasts (MEFs) after incubation of each with different concentrations of ionomycin.

eEF2 kinase+/+ MEFs = test: MTT viability assay, wild type MEFs; type: cell-based, mouse
Procedure: as §1, §2

[1] = system: wild type mouse embryonic fibroblasts (MEFs); test: Cell death in phase-contrast images, wild type MEFs; type: cell-based; settings: 1.6 μM doxorubicin, 24 hours
eEF2K-deficient cells = test: Cell death in phase-contrast images, eEF2K-deficient MEFs; type: cell-based, mouse; settings: 1.6 μM doxorubicin, 24 hours

## Cc1ccc(C(=O)Cn2c3c(sc2=N)CCCC3)cc1 [PFTα, pifithrin α]
eEF2 kinase−/− MEFs; DOX 24 h, MTT assay
  effect of p53 inactivation on drug sensitivity (DOX): only slightly affected
eEF2 kinase+/+ MEFs; DOX 24 h, MTT assay
  effect of p53 inactivation on drug sensitivity (DOX): strongly decreasing sensitivity

## COc1cccc2c1C(=O)c1c(O)c3c(c(O)c1C2=O)C[C@@](O)(C(=O)CO)C[C@@H]3O[C@H]1C[C@H](N)[C@H](O)[C@H](C)O1 [doxorubicin]
[1]
  cell death: significant cell death
eEF2K-deficient cells
  cell death: much less cell death

## C[C@H](CCC(=O)O)C[C@H](C)C[C@H](C)C(=O)/C=C(\O)[C@H](C)C[C@H](C)C/C=C/[C@@H](C)[C@@H](O)[C@@H](C)[C@@H](O)C[C@@H]1CC[C@@](C)([C@H]2CC[C@@](C)([C@@H](C)O)O2)O1 [ionomycin]
eEF2 kinase−/− MEFs; same concentrations of ionomycin (1 to 10 μM), 24 h
  effect on the viability: virtually no effect
eEF2 kinase+/+ MEFs; 10 μM ionomycin, incubation for 24 h
  cells die: approximately 70%
eEF2 kinase+/+ MEFs; increasing concentrations of ionomycin from 1 to 10 μM, 24 h
  cell viability: progressive decrease of cell viability
